Calls of active or inactive are those of the source.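 How the source made its calls: active means signal decrease with fitted half-maximal dose at or below ten times the highest valid tested dose; inconclusive means poor fit, or flat fit at 30 to 70% inhibition; inactive means the rest.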
Target: Zinc finger protein mex-5 (Caenorhabditis elegans) (UniProt Q9XUB2)
Test: MEX-5 zinc finger-RNA interaction blockers – biochemical, fluorescence polarization, C. elegans, cherry-picked, round 3, dose response (AID 493250)
Conditions: purified MEX-5-MBP, FITC-TCR2 RNA fluorescence polarization; for activity change, negative = inhibition: at 10 µM (top of the series)

Chain of Zinc finger protein mex-5 (Caenorhabditis elegans) (Q9XUB2 whole entry, looked up): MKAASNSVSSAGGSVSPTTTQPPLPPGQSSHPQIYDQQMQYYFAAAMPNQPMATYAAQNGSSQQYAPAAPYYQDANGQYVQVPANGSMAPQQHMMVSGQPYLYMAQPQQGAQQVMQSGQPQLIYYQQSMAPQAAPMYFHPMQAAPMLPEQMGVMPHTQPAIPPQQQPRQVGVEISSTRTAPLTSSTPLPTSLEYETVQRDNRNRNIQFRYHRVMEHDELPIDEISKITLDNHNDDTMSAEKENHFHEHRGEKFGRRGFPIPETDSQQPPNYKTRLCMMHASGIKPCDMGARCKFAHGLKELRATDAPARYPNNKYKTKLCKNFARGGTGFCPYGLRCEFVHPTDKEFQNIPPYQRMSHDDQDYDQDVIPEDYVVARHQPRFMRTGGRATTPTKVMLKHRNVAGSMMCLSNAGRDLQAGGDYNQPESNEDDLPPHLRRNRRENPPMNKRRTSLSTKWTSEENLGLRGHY

CCOc1cc(/C=N/n2c(C)nc3ccccc3c2=O)ccc1O
activity change, negative = inhibition: inactive

CC(C)C(=O)OCC(=O)Nc1ccc2c(c1)CCC2
activity change, negative = inhibition: inactive

O=C(NNc1ccccc1)C(=O)NNS(=O)(=O)c1ccc(CCCl)cc1
activity change, negative = inhibition: inactive

O=C(N/N=C/c1ccncc1)c1cc([N+](=O)[O-])cc([N+](=O)[O-])c1O
activity change, negative = inhibition: inactive

C[C@H](O)CC1=C[C@H](O)[C@@H](C)OC1=O
activity change, negative = inhibition: inactive

CC(=O)Nc1ccc(/C=C/c2nc(-c3ccccc3O)n[nH]2)cc1
activity change, negative = inhibition: inactive

CCCCCC(=O)N(Cc1ccccc1)c1c(N)n(CCOC)c(=O)[nH]c1=O
activity change, negative = inhibition: inactive

O=C(Cc1csc(N2CCOCC2)n1)N/N=C/c1ccc(O)c(O)c1O
activity change, negative = inhibition: inactive

CS(=O)(=O)c1nsc2nc(=O)c(/C=C3\C=Nc4ccccc43)c(N)n12
activity change, negative = inhibition: inactive

O=C(O)c1cccc(NC2=C(Cl)C(=O)c3ccccc3C2=O)c1
activity change, negative = inhibition: inactive

COCCNC(=S)N/N=C/c1c2ccccc2cc2ccccc12
activity change, negative = inhibition: inactive

O=C1/C(=C\c2ccc(Br)o2)Cc2ccccc21
activity change, negative = inhibition: inactive

O=C(CSc1nnc(COc2ccccc2)o1)Nc1nccs1
activity change, negative = inhibition: inactive

CCc1ccc(/C=C2\Oc3cc(OS(C)(=O)=O)ccc3C2=O)cc1
activity change, negative = inhibition: inactive

C=CCn1c(O)c(N=NC(=O)CNC(=O)/C=C/c2ccco2)c2ccccc21
activity change, negative = inhibition: inactive

COC(=O)c1ccc2c(c1)SC1=C(CCCC1=O)N2
AC50: 5.95 µM

CCCC1=NN2C(=N)/C(=C\c3ccc(SCc4ccco4)o3)C(=O)N=C2S1
AC50: 0.98 µM

COC(=O)c1ccc(CC(=O)c2ccc(O)cc2O)o1
activity change, negative = inhibition: inactive

Nc1cc(C(=O)O)c(Oc2ccc(Cl)cc2Cl)cc1C(=O)O
activity change, negative = inhibition: inactive

CN1CCc2nc3sc(C(=O)NC(C)(C)C)c(N)c3cc2C1
activity change, negative = inhibition: inactive

O=C(O)Cn1c(O)c(C2=c3ccccc3=NC2=O)sc1=O
activity change, negative = inhibition: inactive

COc1ccc(/C=C/C(=O)c2cc(Cl)cc(Cl)c2O)c(OC)c1
activity change, negative = inhibition: inactive

COC(=O)c1cccc2nc3c(C(C)O)cccc3nc12 (stereo not drawn)
activity change, negative = inhibition: inactive

COc1ccccc1-c1cn[nH]c1-c1ccc(O)cc1O
activity change, negative = inhibition: inactive

N=C1C(c2nc3ccccc3[nH]2)=C(O)CN1c1ccc(F)cc1
activity change, negative = inhibition: inactive

CCCCN(C(=O)c1ccc(C)o1)c1c(N)n(CCCC)c(=O)[nH]c1=O
activity change, negative = inhibition: inactive

NS(=O)(=O)c1ccc(N=Nc2ccc(=O)[nH]c2O)cc1
activity change, negative = inhibition: inactive

CCc1cc(-c2n[nH]c(C)c2-c2nc3ccccc3s2)c(O)cc1OCC(=O)NN
activity change, negative = inhibition: inactive

CC(=O)Nc1ccc(-c2csc(Nc3cccc(C)n3)n2)cc1
activity change, negative = inhibition: inactive

Cc1cc(C(=O)N/N=C/c2ccc(-c3ccc(C)c(Cl)c3)o2)n[nH]1
activity change, negative = inhibition: inactive

O=c1[nH]c2ccccc2n1Cc1ccc(Cl)cc1
activity change, negative = inhibition: inactive

COC1=C(Nc2ccc(O)cc2)C(=O)c2ccccc2C1=O
activity change, negative = inhibition: inactive

COc1ccc(C2NC(=O)N(CCCC(=O)O)C(C)=C2C(=O)OCc2ccccc2)cc1 (stereo not drawn)
activity change, negative = inhibition: inactive

O=c1oc2cc([N+](=O)[O-])ccc2nc1/C=C(\O)c1cccc(Br)c1
activity change, negative = inhibition: inactive

CCOc1ccc(/C=C/C(=O)c2ccccc2)cc1
activity change, negative = inhibition: inactive

CN1CC=C2C(C#N)=C(N)C(C#N)(C#N)C(Cc3ccccc3)C2C1 (stereo not drawn)
AC50: 4.69 µM

O=C(O)c1ccc(/C=C2\SC(=S)N(Nc3ccccc3)C2=O)cc1
activity change, negative = inhibition: inactive

c1cncc(C2CC(c3cccs3)n3ncnc3N2)c1 (stereo not drawn)
activity change, negative = inhibition: inactive

Source: PubChem BioAssay AID493250 (Broad Institute, 2011)
